Tests used:
[1] = test system: blackgrass; experiment: Test B pre/postemergence blackgrass; assay type: in vivo, Alopecurus myosuroides
In short: (§1)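 Test chemicals in a non-phytotoxic solvent mixture with surfactant were sprayed preemergence onto planted seeds and postemergence onto plants 2 to 18 cm tall (1- to 4-leaf stage). After twelve to sixteen days in a greenhouse, injury was visually rated against untreated controls from 0 (no effect) to 10 (complete control).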

[2] = test system: surinam grass; experiment: Test B pre/postemergence surinam grass; assay type: in vivo, Brachiaria decumbens
In short: as §1

[3] = test system: cocklebur; experiment: Test B pre/postemergence cocklebur; assay type: in vivo, Xanthium strumarium
In short: as §1

[4] = test system: corn; experiment: Test B pre/postemergence corn; assay type: in vivo, Zea mays
In short: as §1

[5] = test system: crabgrass; experiment: Test B pre/postemergence crabgrass; assay type: in vivo, Digitaria sanguinalis
In short: as §1

[6] = test system: giant foxtail; experiment: Test B pre/postemergence giant foxtail; assay type: in vivo, Setaria faberii
In short: as §1

[7] = test system: morningglory; experiment: Test B pre/postemergence morningglory; assay type: in vivo, Ipomoea hederacea
In short: as §1

[8] = test system: pigweed; experiment: Test B pre/postemergence pigweed; assay type: in vivo, Amaranthus retroflexus
In short: as §1

[9] = test system: rape; experiment: Test B pre/postemergence rape; assay type: in vivo, Brassica napus
In short: as §1

[10] = test system: sugar beet; experiment: Test B pre/postemergence sugar beet; assay type: in vivo, Beta vulgaris
In short: as §1

[11] = test system: velvetleaf; experiment: Test B pre/postemergence velvetleaf; assay type: in vivo, Abutilon theophrasti
In short: as §1

[12] = test system: wheat; experiment: Test B pre/postemergence wheat; assay type: in vivo, Triticum aestivum
In short: as §1

[13] = test system: purple nutsedge; experiment: Test B pre/postemergence purple nutsedge; assay type: in vivo, Cyperus rotundus
In short: as §1

[14] = test system: rice; experiment: Test B flood test rice; assay type: in vivo, Oryza sativa
In short: (§2)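 Read-out is a visual response score from 0 (no effect) to 10 (complete control), assigned by comparison with untreated controls. Treatment was applied at the 2-leaf stage, and plants stayed in the greenhouse for twelve to sixteen days before scoring.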

[15] = test system: smallflower flatsedge; experiment: Test B flood test smallflower flatsedge; assay type: in vivo, Cyperus difformis
In short: as §2

[16] = test system: duck salad; experiment: Test B flood test duck salad; assay type: in vivo, Heteranthera limosa
In short: as §2

[17] = Postemergence, Rate 125 g/ha, scale 0 to 10, 0 is no effect, 10 is complete control
[18] = Postemergence, Rate 250 g/ha, scale 0 to 10, 0 is no effect, 10 is complete control
[19] = Postemergence, Rate 500 g/ha, scale of 0 to 10 where 0 is no effect and 10 is complete control
[20] = Preemergence, Rate 62 g/ha, scale 0 to 10 (0 no effect, 10 complete control)
[21] = Preemergence, Rate 125 g/ha, scale of 0 to 10 where 0 is no effect and 10 is complete control
[22] = Preemergence, Rate 250 g/ha, scale of 0 to 10 where 0 is no effect and 10 is complete control
[23] = Preemergence, Rate 500 g/ha, scale 0 to 10, 0 is no effect, 10 is complete control
[24] = Rate 62 g/ha, Postemergence, scale of 0 to 10 where 0 is no effect and 10 is complete control
[25] = Preemergence, Rate 250 g/ha, scale 0 to 10, 0 is no effect, 10 is complete control
[26] = Rate 62 g/ha, flood test species, Pre-emergence, visual evaluation after twelve to sixteen days
[27] = Rate 125 g/ha, under heading Pre-emergence, flood test species, visual evaluation after twelve to sixteen days
[28] = Rate 250 g/ha, Pre-emergence, flood-test species, scale 0 to 10, 0 is no effect, 10 is complete control
[29] = Rate 500 g/ha, Pre-emergence, flood test species, scale 0 to 10 (0 no effect, 10 complete control)

CC(C)N(C(=O)n1oc(=O)n(CC#N)c1=O)c1ccc(F)cc1 [Compound 395]
Plant response rating, Blackgrass [1, 17]: 0 | Plant response rating, Blackgrass [1, 18]: 0 | Blackgrass plant response rating [1, 19]: 5 | Plant response rating, Blackgrass [1, 20]: 0 | Plant response rating, Blackgrass [1, 21]: 0 | Blackgrass plant response rating [1, 22]: 0 | Blackgrass plant response rating [1, 23]: 0 | Blackgrass plant response rating [1, 24]: 0 | Plant response rating, B. signalgrass [2, 17]: 0 | Plant response rating, B. signalgrass [2, 18]: 0 | B. signalgrass plant response rating [2, 19]: 0 | Plant response rating, B. signalgrass [2, 20]: 0 | Plant response rating, B. signalgrass [2, 21]: 0 | B. signalgrass plant response rating [2, 22]: 0 | B. signalgrass plant response rating ([2]; Preemergence, Rate 500 g/ha, scale of 0 to 10 where 0 is no effect and 10 is complete control): 0 | B. signalgrass plant response rating [2, 24]: 0 | Plant response rating, Cocklebur [3, 17]: 0 | Plant response rating, Cocklebur [3, 18]: 0 | Cocklebur plant response rating [3, 19]: 0 | Plant response rating, Cocklebur [3, 20]: 0 | Plant response rating, Cocklebur [3, 21]: 0 | Cocklebur plant response rating [3, 25]: 0 | Cocklebur plant response rating [3, 23]: 0 | Cocklebur plant response rating [3, 24]: 0 | Plant response rating, Corn [4, 17]: 0 | Plant response rating, Corn [4, 18]: 0 | Corn plant response rating [4, 19]: 0 | Plant response rating, Corn [4, 20]: 0 | Plant response rating, Corn [4, 21]: 0 | Corn plant response rating [4, 25]: 0 | Corn plant response rating [4, 23]: 0 | Corn plant response rating [4, 24]: 0 | Plant response rating, Crabgrass [5, 17]: 2 | Plant response rating, Crabgrass [5, 18]: 2 | Crabgrass plant response rating [5, 19]: 5 | Plant response rating, Crabgrass [5, 20]: 0 | Plant response rating, Crabgrass [5, 21]: 0 | Crabgrass plant response rating [5, 25]: 0 | Crabgrass plant response rating [5, 23]: 2 | Crabgrass plant response rating [5, 24]: 0 | Plant response rating, Giant foxtail [6, 17]: 3 | Plant response rating, Giant foxtail [6, 18]: 5 | Giant foxtail plant response rating [6, 19]: 6 | Plant response rating, Giant foxtail [6, 20]: 0 | Plant response rating, Giant foxtail [6, 21]: 0 | Giant foxtail plant response rating [6, 25]: 0 | Giant foxtail plant response rating [6, 23]: 2 | Giant foxtail plant response rating [6, 24]: 0 | Plant response rating, Morningglory [7, 18]: 0 | Plant response rating, Morningglory [7, 20]: 0 | Plant response rating, Morningglory [7, 21]: 0 | Morningglory plant response rating [7, 25]: 0 | Morningglory plant response rating [7, 23]: 0 | Morningglory plant response rating [7, 24]: 0 | Plant response rating, Redroot pigweed [8, 18]: 0 | Redroot pigweed plant response rating [8, 19]: 0 | Plant response rating, Redroot pigweed [8, 20]: 0 | Plant response rating, Redroot pigweed [8, 21]: 0 | Redroot pigweed plant response rating [8, 25]: 0 | Redroot pigweed plant response rating [8, 23]: 0 | Redroot pigweed plant response rating [8, 24]: 0 | Plant response rating, Rape [9, 18]: 0 | Plant response rating, Rape [9, 20]: 0 | Plant response rating, Rape [9, 21]: 0 | Rape plant response rating [9, 25]: 0 | Rape plant response rating [9, 23]: 0 | Rape plant response rating [9, 24]: 0 | Plant response rating, Sugarbeets [10, 18]: 0 | Sugarbeets plant response rating [10, 19]: 0 | Plant response rating, Sugarbeets [10, 20]: 0 | Plant response rating, Sugarbeets [10, 21]: 0 | Sugarbeets plant response rating [10, 25]: 0 | Sugarbeets plant response rating [10, 23]: 0 | Sugarbeets plant response rating [10, 24]: 0 | Plant response rating, Velvetleaf [11, 18]: 2 | Velvetleaf plant response rating [11, 19]: 2 | Plant response rating, Velvetleaf [11, 20]: 0 | Plant response rating, Velvetleaf [11, 21]: 0 | Velvetleaf plant response rating [11, 25]: 0 | Velvetleaf plant response rating [11, 23]: 0 | Velvetleaf plant response rating [11, 24]: 0 | Wheat plant response rating [12, 19]: 3 | Plant response rating, Wheat [12, 20]: 0 | Plant response rating, Wheat [12, 21]: 0 | Wheat plant response rating [12, 25]: 0 | Wheat plant response rating [12, 23]: 0 | Wheat plant response rating [12, 24]: 0 | Plant response rating, Nutsedge [13, 18]: 0 | Nutsedge plant response rating [13, 19]: 0 | Plant response rating, Nutsedge [13, 20]: 0 | Plant response rating, Nutsedge [13, 21]: 0 | Nutsedge plant response rating [13, 25]: 0 | Nutsedge plant response rating [13, 23]: 0 | Nutsedge plant response rating [13, 24]: 0 | Plant response rating, Rice (0 to 10 scale, 0 is no effect, 10 is complete control) [14, 26]: 0 | Rice plant response rating (0 to 10 scale, 0 is no effect, 10 is complete control) [14, 27]: 0 | Rice plant response rating [14, 28]: 0 | Rice plant response rating [14, 29]: 0 | Plant response rating, S. Flatsedge (0 to 10 scale, 0 is no effect, 10 is complete control) [15, 26]: 0 | S. Flatsedge plant response rating (0 to 10 scale, 0 is no effect, 10 is complete control) [15, 27]: 0 | S. Flatsedge plant response rating [15, 28]: 0 | S. Flatsedge plant response rating [15, 29]: 0 | Plant response rating, Ducksalad (0 to 10 scale, 0 is no effect, 10 is complete control) [16, 26]: 0 | Ducksalad plant response rating (0 to 10 scale, 0 is no effect, 10 is complete control) [16, 27]: 0 | Ducksalad plant response rating [16, 28]: 0 | Ducksalad plant response rating [16, 29]: 0

From patent US6737383B1, “Herbicidal oxadiazolidines” (priority 1999, dated 2004)
